Blank lines part the entries; values can stand above or below the substance they belong to.
What was measured:
K562 cells [1] = experiment: Cellular uptake (FACS) after pre-incubation with trypsin; type: cell-based, human; details: PNA 2 μM pre-incubated 10 min at room temperature with trypsin (0.012–0.025 %), then K562 cells in the absence of serum
Protocol: In order to explore the effect of protection against proteases further, pre-incubation of the PNA–peptide conjugate PNA2-Fl and the modified PNAs PNA3-Fl, PNA4-Fl, PNA5-Fl and PNA6-Fl was performed with trypsin (0.012–0.025 %) before allowing interaction with target K562 cells in the absence of serum (see Figure 4). […] The embedding of arginine residues into the PNA backbone thus allows efficient cellular uptake to be achieved without the risk of degradation even by a basic amino-acid-specific peptidase. In contrast, the carrier peptide of PNA2-Fl is to a certain degree an Achilles' heel of the molecule, leading to possible degradation by proteases, an effect worth considering in view of possible developments of PNAs as drugs based on anti-miR activity.
(§1) FACS analysis: For determination of fluorescence intensity by FACScan (Becton Dickinson, Franklin Lakes, NJ, USA), cells (either in medium supplemented with serum or under serum-free conditions) were incubated with the indicated concentrations of PNAs for different lengths of time, harvested and washed. The cells (3×10^5) were then analysed with the aid of the CellQuest version 3.3 software (Becton Dickinson), with use of the FL1 channel to detect green fluorescence. The results were expressed as median fold (i.e., the ratio between the median fluorescence intensity values obtained in the presence and in the absence of treatment, respectively). A graphic presentation of data was finally obtained through histograms, showing the number of cells versus the expressed fluorescence intensity. In some experiments we pre-incubated fluorescence-labelled PNAs (2 μM) for 10 min at room temperature in the dark with trypsin/EDTA (0.05 %, 2 and 4 μL) before addition to the cells.

K562 cells [2] = experiment: Cellular uptake of fluorescein-labelled PNAs by FACS analysis; type: cell-based, human; details: 24 h incubation; for change of cellular uptake in the presence of serum: medium with serum vs serum-free, FACS
Protocol: We therefore studied the uptake of backbone-modified PNAs in the same cellular model and compared the obtained results with those observed in the study of PNA1 and PNA2. K562 cells were incubated in the presence of increasing concentrations of fluorescein-labelled PNAs (PNA1–6-Fl) for 24 and 48 h and analysed by fluorescence-activated cell sorting analysis (FACS), giving the results shown in Figure 3. Because different PNA structures could be affected by proteases present in serum, leading to different cellular uptakes, these experiments were conducted both in the presence and in the absence of serum.
Human cell lines and culture conditions: Human leukaemia K562 cells were cultured under humidified CO2 (5 %)/air in RPMI 1640 medium (Sigma) supplemented with foetal bovine serum (FBS, 10 %, Analitical de Mori, Milan, Italy), penicillin (50 units mL^−1) and streptomycin (50 μg mL^−1).[26] Mithramycin (MTH) was from Sigma. Stock solutions of MTH (100 μM) were stored at −20 °C in the dark and diluted immediately before use. Treatment of K562 cells with MTH was carried out by addition of the appropriate drug concentrations at the beginning of the cultures (cells were seeded at 30 000 mL^−1). The medium was not changed during the induction period. To determine antiproliferative activity, cell growth was studied by determining the cell number per mL with a Z1 Coulter Counter (Coulter Electronics, Hialeah, FL, USA). Erythroid differentiated K562 cells containing haemoglobin were detected by specific reaction with a benzidine/hydrogen peroxide solution as reported elsewhere.[26] The final concentration of benzidine was 0.2 % in glacial acetic acid (5 M) and H2O2 (10 %).
as §1

[3] = system: RNA2 (mismatched RNA, G→U); experiment: Melting temperature (Tm) of PNA:RNA duplexes, single-mismatch RNA; type: binding; details: UV absorbance at 260 nm, PBS buffer pH 7 with urea 5 M, strand concentration 5 μM
Text: (§2) Sequence selectivity is a very important issue in view of the use of PNAs in cellular systems, because partial hybridisation might occur with other unrelated miRNAs or, most importantly, with mRNA targets. We analysed the sequence selectivities of our PNAs with stricter models (DNA2 and RNA2) involving single base mismatches (G→T or G→U) located in the middle of the target sequences. In each case the sequence selectivity was confirmed by significant lowering of the melting temperature. The ranges of ΔTm due to the presence of these single mismatches were 8–21 °C for DNA, with the maximum drop in the case of PNA4 and the minimum observed in that of PNA6. For the latter it should be considered that the mismatch was facing the last chiral monomer, preventing the cooperative effect observed in the case of 2D-modifed highly constrained PNA.[22]
(§3) Measurements of Tm values: The Tm values were determined with a Lambda Bio 20 spectrophotometer and a Peltier PTP6 temperature programmer. Thermal denaturation profiles were measured by monitoring the absorbance at 260 nm from 18 to 90 °C with a heating rate of 1 °C min^−1 and recording every 0.1 °C. Measurement conditions: [PNA]=[DNA] or [RNA]=5 μM in PBS buffer [pH 7.0, NaCl (100 mM), NaH2PO4⋅H2O (10 mM), EDTA (0.1 mM)] with urea (5 M).

miR-210 = miR-210 content by RT-qPCR analysis; type: cell-based, human; details: K562 cells, 24 h; for miR-210 inhibition upon treatment with mithramycin: PNA 2 μM with MTH 15 nM, relative to pept-1 and MTH; for inhibition of miR-210 bioavailability (miR-210 content): PNA 2 μM, Figure 5 A and B, relative to pept-1
Protocol: K562 cells were treated with 15 nM mithramycin in the presence of a PNA (2 μM), and after 24 h RNA was isolated and miR-210 was assayed by RT-qPCR analysis. This type of test has been used to evaluate miR content in many studies because it allows the free-miR content to be evaluated. […] Figure 5 A and B reports the obtained data, showing that inhibition of miR bioavailability was induced both with the modified PNA and with the peptide-conjugated one, whereas in the case of PNA1 it was unchanged. […] This might be related to inhibition of pre-miR maturation or to unavailability of the miR to the qRT-PCR analysis due to strong complexation with the PNA. In either case the bioavailability of the miR for targeting other genes should be reduced.
Transfection procedures: Anti-miR-210 PNAs were directly added to the cellular medium to reach the indicated final concentrations. K562 cells were cultured in 24-well plates starting from the initial density of 30 000 cells per mL. MTH was administrated together with anti-miR PNAs.
RNA extraction: Cells were isolated by centrifugation at 1500 rpm for 10 min at 4 °C, washed in PBS and lysed in Tri-reagent (Sigma–Aldrich) according to the manufacturer's instructions. The isolated RNA was washed once with cold ethanol (75 %), dried and dissolved in ultrapure nuclease-free water.
Real-time quantitative PCR: For microRNA quantification with real-time RT-PCR reagents, the primers and probes were obtained from Applied Biosystems. Reverse transcriptase (RT) reactions were performed with a TaqMan MicroRNA Reverse Transcription Kit (Applied Biosystems) for hsa-miR-210, hsa-miR-10a, hsa-miR-93, hsa-miR-99b, hsa-miR-126, hsa-miR-149, hsa-miR-424, hsa-miR-483-5p, hsa-miR-625, hsa-let-7c and the iQTM5 real-time PCR System Instrument (Bio-Rad). Relative expression was calculated by the comparative cycle threshold method and U6 microRNA was used as reference gene to normalise all RNA samples, because it is constant in the assayed samples by miR-profiling and quantitative RT-PCR analysis as previously reported.[25]

[4] = system: DNA2 (mismatched DNA, G→T); experiment: Melting temperature (Tm) of PNA:DNA duplexes, single-mismatch DNA; type: binding; details: for Tm, DNA2 in urea (5 M): single mismatch, UV absorbance at 260 nm, PBS buffer pH 7 with urea 5 M, strand concentration 5 μM
Text: as §2, §3

[5] = system: DNA1 (full-match antiparallel DNA); experiment: Melting temperature (Tm) of PNA:DNA duplexes, full-match DNA; type: binding; details: UV absorbance at 260 nm, strand concentration 5 μM; for Tm, DNA1 in urea (5 M): PBS buffer pH 7 (NaCl 100 mM, NaH2PO4 10 mM, EDTA 0.1 mM) with urea 5 M; for Tm, DNA1 in water: PBS buffer pH 7, no urea, 18 to 90 °C at 1 °C/min
Protocol: as §3, with “Measurement conditions: [PNA]=[DNA] or [RNA]=5 μM in PBS buffer [pH 7.0, NaCl (100 mM), NaH2PO4⋅H2O (10 mM), EDTA (0.1 mM)] with urea (5 M).” left out

[6] = system: RNA1 (target region of miR-210); experiment: Melting temperature (Tm) of PNA:RNA duplexes, full-match RNA; type: binding; details: UV absorbance at 260 nm, strand concentration 5 μM; for Tm, RNA1 in water: PBS buffer pH 7, no urea; for Tm, RNA1 in urea (5 M): PBS buffer pH 7 with urea 5 M
Protocol: as §3, with “Measurement conditions: [PNA]=[DNA] or [RNA]=5 μM in PBS buffer [pH 7.0, NaCl (100 mM), NaH2PO4⋅H2O (10 mM), EDTA (0.1 mM)] with urea (5 M).” left out

effect of trypsin pre-incubation on cellular uptake (K562 cells [1]): does not affect uptake
change of cellular uptake in the presence of serum (K562 cells [2]): no decreases in uptake
Substance: Fl-AEEA-C2DArgC2DArgG2DArgC2DArgT2DArgG2DArgT2DArgC2DArgACACGCACAG-NH2 [PNA6-Fl, fluorescein-labelled PNA6]

effect of trypsin pre-incubation on cellular uptake (K562 cells [1]): does not affect uptake
change of cellular uptake in the presence of serum (K562 cells [2]): only minor decreases in uptake
Substance: Fl-AEEA-C5LArgC5LArgG5LArgC5LArgT5LArgG5LArgT5LArgC5LArgACACGCACAG-NH2 [PNA4-Fl, fluorescein-labelled PNA4]

effect of trypsin pre-incubation on cellular uptake (K562 cells [1]): does not affect uptake
change of cellular uptake in the presence of serum (K562 cells [2]): no decreases in uptake
Substance: Fl-AEEA-CC2DArgGC2DArgTG2DArgTC2DArgAC2DArgAC2DArgGC2DArgAC2DArg AG-NH2 [PNA5-Fl, fluorescein-labelled PNA5]

effect of trypsin pre-incubation on cellular uptake (K562 cells [1]): does not affect uptake
change of cellular uptake in the presence of serum (K562 cells [2]): only minor decreases in uptake
Substance: Fl-AEEA-CC5LArgGC5LArgTG5LArgTC5LArgAC5LArgAC5LArgGC5LArgAC5LArgAG-NH2 [PNA3-Fl, fluorescein-labelled PNA3]

Substance: Flu-AEEA-R8-CCGCTGTCACACGCACAG-NH2 [PNA2-Fl, fluorescein-labelled R8-conjugated PNA2, reference compound]
effect of trypsin pre-incubation on cellular uptake (K562 cells [1]): trypsin treatment affects the cellular uptake
change of cellular uptake in the presence of serum (K562 cells [2]): decreased uptake
cellular uptake (internalisation) in the absence of serum (K562 cells [2]; serum-free, FACS FL1 channel): efficiently internalised

Substance: H-C2DArgC2DArgG2DArgC2DArgT2DArgG2DArgT2DArgC2DArgACACGCACAG-NH2 [PNA6, 2D Arg (C2) backbone-modified 18-mer PNA, model 2, stretch of consecutive modified monomers]
Tm, RNA2 in urea (5 M) [3]: 65 °C
miR-210 inhibition upon treatment with mithramycin (miR-210): significant inhibition, but to lesser extents
inhibition of miR-210 bioavailability (miR-210 content) (miR-210): Stronger inhibition
ΔTm due to single mismatch, DNA ([4]; DNA1 vs DNA2 (G→T in the middle of the target), urea 5 M): 8 °C
Tm, DNA2 in urea (5 M) [4]: 69 °C
Tm, DNA1 in urea (5 M) [5]: 77 °C
Tm, DNA1 in water [5]: >90 °C
Tm, RNA1 in water [6]: >90 °C
Tm, RNA1 in urea (5 M) [6]: 75 °C

Substance: H-CC2DARGGC2DARGTG2DARGTC2DARGAC2DARGAC2DARGGC2DARGAC2DARG AG-NH2 [PNA5, 2D Arg (C2) backbone-modified 18-mer PNA, model 1, alternating modified monomers]
Tm, RNA2 in urea (5 M) [3]: 62 °C
miR-210 inhibition upon treatment with mithramycin (miR-210): significant inhibition, but to lesser extents
inhibition of miR-210 bioavailability (miR-210 content) (miR-210): less efficient inhibition
Tm, DNA2 in urea (5 M) [4]: 64 °C
Tm, DNA1 in urea (5 M) [5]: 74 °C
Tm, DNA1 in water [5]: >90 °C
Tm, RNA1 in water [6]: >90 °C
Tm, RNA1 in urea (5 M) [6]: 78 °C

Source: article PMC3401907, “Cellular Uptakes, Biostabilities and Anti-miR-210 Activities of Chiral Arginine-PNAs in Leukaemic K562 Cells” (Chembiochem, 2012)
